Like-named read-outs stand apart in the source and are kept apart here. Blank lines part the entries; values can stand above or below the compound they belong to.
Columns and labels:
[1] = system: Human keratinocytes; assay: Transglutaminase Assay (TGase I ELISA, procedure for other Examples), normalized to DNA; keratinocyte differentiation; type: cell-based; settings: for % Control: transglutaminase normalized to DNA; for activity at 1 µM: 1 micromolar, read-out: % of Control; for TGase/ DNA (% control) / mean TGase/ DNA x10^5 ± s.d: 72 hour treatment; for mean TGase/ DNA x10^5 ± s.d: n = 3
Experimental: (§1) Human keratinocytes, isolated from neonatal foreskin by trypsin treatment were grown in Dulbecco Modification Eagle (DME) Hams F12 (1:1) medium/10% fetal calf serum in the presence of irradiated 3T3 mouse fibroblasts for establishing dividing keratinocyte colonies. Cells were grown under the above condition until their second passage and kept frozen for future use. Frozen second passage keratinocytes were thawed and plated into the above medium and grown for five days before they were switched to a serum-free MCDB 153-based medium keratinocyte growth medium (KGM) from Clonetics Corporation, San Diego, CA, containing 0.15 mM Ca, or keratinocyte serum-free media (KSFM) from GIBCO containing 0.09 mM Ca). On day 7, when the cells were 80-90% confluent, they were trypsinized and plated in the serum-free medium for the various experiments.
During the process of terminal differentiation in the epidermis, a 15nm thick layer of protein, known as the cornified envelope (CE) is formed on the inner surface of the cell periphery. The CE is composed of numerous distinct proteins which have been cross-linked together by the formation of N^ε-(γ-glutamyl) lysine isodipeptide bonds catalyzed by the action of at least two different transglutaminases (TGases) expressed in the epidermis. Transglutaminase I (TGase I) is expressed in abundance in the differentiated layers of the epidermis, especially the granular layer, but is absent in the undifferentiated basal epidermis. Thus TGase I is a useful marker of epidermal keratinocyte differentiation with high TGase I levels indicating a more differentiated state. An ELISA based TGase I assay, using a TGase I antibody, was used to assess the state of differentiation of the cultured keratinocytes in the examples that follow.
Keratinocytes (cultured as described above) were plated in 96 well plates at a density of 3,000 cells per well in 200µl of cell culture media. After incubation for four days, the media was changed to media containing test compounds (six replicates per test). The cells were cultured for a further 72 hours after which time the media was aspirated and the plates stored at -70°C. After the plates were removed from the freezer, the cells were further freezed fractured by freezing and thawing and then washed 3x with PBS. The cells were incubated for one hour at room temperature (R/T) with TBS/5% BSA buffer. Cells were then incubated with 100µl of monoclonal anti-human transglutaminase (IgG) mouse antibody (primary antibody) obtained from Biomedical Technologies Inc. diluted 1:2000 in TBS/1% BSA buffer for two hours at 37°C, and then rinsed six times with wash buffer (TBS/1% BSA/0.05% Tween-20). Cells were next incubated with 100µl of Fab fragment, peroxidase conjugated anti-mouse IgG antibody (secondary antibody) from Amersham diluted 1:4,000 in wash buffer for two hours at 37°C and then rinsed three times with wash buffer and three times with PBS. Cells were incubated with substrate solution (4mg o-phenylene diamine and 3.3µl 30% H2O2 in 10mL 0.1M citrate buffer, pH 5.0) for five minutes at R/T and in darkness (under aluminum foil). The reaction was stopped by the addition of 50µl 4N H2SO4. The absorbance of samples was read at 492nm in the plate reader. Out of the six replicates, four were treated with both antibodies, two were treated only with the secondary antibody (i.e., to determine the background binding of the enzyme conjugated antibody). Transglutaminase I levels were determined by subtracted background from the readings from each treatment and determining the mean ± s.d. for the replicates exposed to both antibodies.
The level of TGase I detected after treatment of the cells could be influenced by cell number, i.e., the greater the number of cells the greater the level of TGase-1 detected. The level of Tgase I was normalized to DNA content of the cells in the same well thus eliminating variation due to differences in cell number. […]

[2] = system: acyl CoA retinol transferase (ARAT); assay: In vitro Microsomal Assay, ARAT catalyzed retinol esterification (retinyl palmitate formation); type: biochemical, bovine
[3] = molecular target: T1, lecithin retinol acyl transferase (LRAT) (Bos taurus, UniProt Q9BGL2); assay: In vitro Microsomal Assay, LRAT catalyzed retinol esterification (retinyl laurate formation); type: biochemical, bovine
T1 construct: a microsomal fraction isolated from bovine retinal pigment epithelial cells; from tissue; host or cells: bovine retinal pigment epithelium, microsomal fraction
T1 sequence (Q9BGL2 1-230): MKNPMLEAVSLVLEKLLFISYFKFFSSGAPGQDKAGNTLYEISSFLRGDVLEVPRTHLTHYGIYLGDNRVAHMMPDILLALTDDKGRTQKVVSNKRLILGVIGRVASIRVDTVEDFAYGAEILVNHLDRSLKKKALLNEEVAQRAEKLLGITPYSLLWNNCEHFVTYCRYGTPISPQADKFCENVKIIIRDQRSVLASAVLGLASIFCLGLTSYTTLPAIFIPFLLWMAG

[4] = system: Human keratinocytes; assay: Transglutaminase Assay (TGase I ELISA, Example 1 procedure), normalized to DNA; keratinocyte differentiation; type: cell-based; settings: 2.5 x 10^-7M, 2.5 x 10^-8M and 2.5x10^-9M, vs ethanol control
Experimental: as §1, with “experiments. […]” for “experiments.”
Keratinocytes (cultured as described above) were plated in 96 well plates at a density of 3,000 cells per well in 200 µl media. […] The absorbance of samples was read at 492nm in the plate reader. […] TGase levels were determined by subtracting background from the readings from each treatment and determining mean ± s.d. for the replicates exposed to both antibodies.
The level of TGase I detected after treatment of the cells could be influenced by cell number, i.e., the greater the number of cells the greater the level of TGase-1 detected. […]

[5] = system: Human keratinocytes; assay: 3H-Thymidine incorporation, keratinocyte proliferation; type: cell-based; settings: 250 nM
Experimental: as §1
The incorporation of ^3H-thymidine by cultured keratinocytes was used as an assay of keratinocyte proliferation. Thymidine is one of four deoxynucleosides which are the monomeric units of DNA, the universal library of genetic information in the animal kingdom. Prior to cell division of a somatic cell such as a keratinocyte, the complete genome of the cell undergoing cell division is replicated. This involves large scale DNA synthesis by the cell and enables both daughter cells to receive identical copies of the genetic material. When ^3H-thymidine is included in the culture media of keratinocytes which are synthesizing DNA in preparation for cell division then the labelled nucleoside is incorporated into the newly synthesized DNA. The extent of incorporation of ^3H-thymidine into a population of cells is proportional to the rate of DNA synthesis by this population of cells and therefore an indication of their cellular proliferation.
Keratinocytes (that were cultured as described above) were plated in 24 well plates at a density of 20,000 cells per well in 1 ml media. After incubation for four days or until the cells were 60-70% confluent, the media was changed. Test compounds were added (in triplicate) to the wells 24 hours after the media change, and four hours later 1µCi ^3H-Thymidine in 50 µl media was added per well. Cells were incubated for a further 24 hours. Media was removed from the cells, 10% ice cold trichloroacetic acid (TCA) added and plates were incubated on ice for 30 minutes. Cells were washed five times with 5% TCA and allowed to dissolve in 500 µl 0.1M NaOH for at least one hour (usually overnight). The preparations were neutralized with 0.1M HCl; 50 µl of the cell preparation was used to determine total protein content. Disintegrations per minute (DPM) from ^3H labelling of DNA was determined by liquid scintillation counting of 900µl of the cell preparation. Thymidine incorporation results were expressed as DPM/µg protein.

[6] = Table 2, 100 µM, read-out: % INHIB. LRAT
[7] = Table 10, 100 µM, read-out: % INHIBITION, LRAT
[8] = Table 5A, 100µM, read-out: % INHIBITION, LRAT

% INHIBITION, ARAT ([2]; Table 5A, 100µM): 83%
% INHIBITION, ARAT ([2]; Table 5B, 10µM): 67%
SMILES: C/C=C/C(=O)C1C(C)=CCCC1(C)C (stereo not drawn) [alpha damascone]
% Control ([1]; Table 7, experiment 1, 1 mM): 92%
% Control ([1]; Table 7, experiment 2, 1 mM): 86%

SMILES: CCCCCCCC/C=C\CCCCCCCC1=NCCN1CCO [oleyl hydroxyethyl imidazoline]
activity at 1 µM ([1]; Homo sapiens, Keratinocyte, Table 4, Exp 1): 80.7%
activity at 1 µM ([1]; Homo sapiens, Keratinocyte, Table 4, Exp 2): 78.2%
activity at 1 µM ([1]; Homo sapiens, Keratinocyte, Table 4, Exp 3): 91.1%

inhibition at 100 µM [3, 6]: 0%
SMILES: CCCCCCCCC=CCCCCCCCC(=O)NCCC[N+](C)(C)CC(=O)[O-] [oleamidopropyl betaine]

% INHIBITION, ARAT ([2]; Table 10, 100 µM): 33%
inhibition at 100 µM [3, 7]: 14%
SMILES: O=C1C[C@@H](c2ccc(O)cc2)Oc2cc(O)cc(O)c21 [Naringenin, naringenin]
TGase/ DNA (% control) ([1]; Table 11, 10^-7M): 94%
mean TGase/ DNA x10^5 ± s.d ([1]; Table 11, 10^-7M): 49.84 ± 2.76
TGase/ DNA (% control) ([1]; Table 12, 10^-8M): 89%
mean TGase/ DNA x10^5 ± s.d ([1]; Table 12, 10^-8M): 45.01 ± 1.90

% INHIBITION, ARAT ([2]; Table 10, 100 µM): 25%
inhibition at 100 µM [3, 7]: 14%
SMILES: O=c1c(O)c(-c2ccc(O)c(O)c2)oc2cc(O)cc(O)c12 [Quercetin, quercetin]

inhibition at 100 µM [3, 6]: 0%
SMILES: CCCCCCCCC=CCCCCCCCC[N+](C)(C)[O-] [oleamine oxide]

inhibition at 10 µM ([3]; Table 3, 10 micromolar, read-out: % INHIB. LRAT): 0%
inhibition at 100 µM ([3]; Table 3, 100 micromolar, read-out: % INHIB. LRAT): 47%
SMILES: CCCCCCCCCCCC1=NCCN1CCO [Lauryl, lauryl hydroxyethyl imidazoline]

SMILES: CCCCCCCCCCCCCCCC(=O)OC/C=C(C)/C=C/C=C(C)/C=C/C1=C(C)CCCC1(C)C [retinyl palmitate]
activity at […] ([1]; Homo sapiens, Keratinocyte, Example 12, 2.5x10^-9M, read-out: keratinocyte TGase I level (% of control)): 93%
TGase/ DNA (% control) ([1]; Table 12, 2.5x10^-8M): 93%
mean TGase/ DNA x10^5 ± s.d ([1]; Table 12, 2.5x10^-8M): 47.32 ± 4.22

SMILES: CC1=C(/C=C/C(C)=C/C=C/C(C)=C/CO)C(C)(C)CCC1 [retinol]
Transglutaminase levels normalized to DNA content of the cells [4]: decrease in transglutaminase level was dose dependent
% Control ([1]; Table 7, experiment 1, 0.001 mM): 67%
TGase/ DNA (% control) ([1]; Table 11, 2.5x10^-9M): 91%
TGase/ DNA (% control) ([1]; Table 11, 2.5x10^-9M, listed as Retinol): 92%
mean TGase/ DNA x10^5 ± s.d ([1]; Table 11, 2.5x10^-9M): 48.31 ± 5.31
TGase/ DNA (% control) ([1]; Table 13, 2.5x10^-7M): 90%
% Control ([5]; Table 9A, Experiment #1): 108%
DPM/Microgram Protein mean ([5]; Table 9A, Experiment #1): 2082 DPM/Microgram Protein
% Control ([5]; Table 9B, Experiment #2): 107%
DPM/Microgram Protein mean ([5]; Table 9B, Experiment #2): 974 DPM/Microgram Protein

SMILES: CC1=C(/C=C/C(C)=C/C=C/C(C)=C/C(=O)O)C(C)(C)CCC1 [retinoic acid]
TGase/ DNA (% control) ([1]; Table 11, 2.5x10^-7M): 42%
mean TGase/ DNA x10^5 ± s.d ([1]; Table 11, 2.5x10^-7M): 22.47 ± 2.31
TGase/ DNA (% control) ([1]; Table 12, 2.5x10^-7M): 32%
mean TGase/ DNA x10^5 ± s.d ([1]; Table 12, 2.5x10^-7M): 16.31 ± 2.58
TGase/ DNA (% control) ([1]; Table 13, 2.5x10^-7M): 52%
% Control ([5]; Table 9A, Experiment #1): 156%
DPM/Microgram Protein mean ([5]; Table 9A, Experiment #1): 3013 DPM/Microgram Protein
% Control ([5]; Table 9B, Experiment #2): 163%
DPM/Microgram Protein mean ([5]; Table 9B, Experiment #2): 1494 DPM/Microgram Protein

inhibition at 100 µM [3, 8]: 49%
SMILES: CCOC(=O)C1=C(C)C=CCC1(C)C [ethyl saffranate]

inhibition at 100 µM [3, 8]: 77%
SMILES: CCC(=O)/C=C/C1C(C)=CCCC1(C)C (stereo not drawn) [alpha methyl ionone]

SMILES: CC(=O)c1cc2c(cc1C)C(C)(C)C(C)C2C(C)C (stereo not drawn) [traseolide]
% INHIBITION, ARAT ([2]; Table 5A, 100µM): 41%

% INHIBITION, ARAT ([2]; Table 5A, 100µM): 80%
inhibition at 100 µM [3, 8]: 92%
SMILES: C/C=C/C(=O)C1CCC(C)(C)C=C1C (stereo not drawn) [isodamascone]

SMILES: CCCCCCCCCCCC(=O)N(C)CC(=O)O [lauroyl sarcosine]
% INHIB. ARAT ([2]; Table 2, 100 µM): 20%
inhibition at 100 µM [3, 6]: 0%

Reference: patent EP0932387B1 (UNILEVER PLC, priority 1996, dated 1998)
